Test results reported in patent publication US20100190788A1, “Amide derivatives as kinase inhitors” (priority 2005, published 2010).
Where a name gives a salt, the structure may show the parent alone.

These compounds were tested against T1, human ROCKα/ROCKII mix (Homo sapiens, UniProt O75116) (assay: ROCK inhibition, fluorescence polarization (FP) assay with ROCK IMAP Kit). Details: Table 3, compounds of Formula III20.
T1 construct: purchased Upstate Biotechnology 14-451
Format: biochemical

T1 sequence (O75116 whole entry): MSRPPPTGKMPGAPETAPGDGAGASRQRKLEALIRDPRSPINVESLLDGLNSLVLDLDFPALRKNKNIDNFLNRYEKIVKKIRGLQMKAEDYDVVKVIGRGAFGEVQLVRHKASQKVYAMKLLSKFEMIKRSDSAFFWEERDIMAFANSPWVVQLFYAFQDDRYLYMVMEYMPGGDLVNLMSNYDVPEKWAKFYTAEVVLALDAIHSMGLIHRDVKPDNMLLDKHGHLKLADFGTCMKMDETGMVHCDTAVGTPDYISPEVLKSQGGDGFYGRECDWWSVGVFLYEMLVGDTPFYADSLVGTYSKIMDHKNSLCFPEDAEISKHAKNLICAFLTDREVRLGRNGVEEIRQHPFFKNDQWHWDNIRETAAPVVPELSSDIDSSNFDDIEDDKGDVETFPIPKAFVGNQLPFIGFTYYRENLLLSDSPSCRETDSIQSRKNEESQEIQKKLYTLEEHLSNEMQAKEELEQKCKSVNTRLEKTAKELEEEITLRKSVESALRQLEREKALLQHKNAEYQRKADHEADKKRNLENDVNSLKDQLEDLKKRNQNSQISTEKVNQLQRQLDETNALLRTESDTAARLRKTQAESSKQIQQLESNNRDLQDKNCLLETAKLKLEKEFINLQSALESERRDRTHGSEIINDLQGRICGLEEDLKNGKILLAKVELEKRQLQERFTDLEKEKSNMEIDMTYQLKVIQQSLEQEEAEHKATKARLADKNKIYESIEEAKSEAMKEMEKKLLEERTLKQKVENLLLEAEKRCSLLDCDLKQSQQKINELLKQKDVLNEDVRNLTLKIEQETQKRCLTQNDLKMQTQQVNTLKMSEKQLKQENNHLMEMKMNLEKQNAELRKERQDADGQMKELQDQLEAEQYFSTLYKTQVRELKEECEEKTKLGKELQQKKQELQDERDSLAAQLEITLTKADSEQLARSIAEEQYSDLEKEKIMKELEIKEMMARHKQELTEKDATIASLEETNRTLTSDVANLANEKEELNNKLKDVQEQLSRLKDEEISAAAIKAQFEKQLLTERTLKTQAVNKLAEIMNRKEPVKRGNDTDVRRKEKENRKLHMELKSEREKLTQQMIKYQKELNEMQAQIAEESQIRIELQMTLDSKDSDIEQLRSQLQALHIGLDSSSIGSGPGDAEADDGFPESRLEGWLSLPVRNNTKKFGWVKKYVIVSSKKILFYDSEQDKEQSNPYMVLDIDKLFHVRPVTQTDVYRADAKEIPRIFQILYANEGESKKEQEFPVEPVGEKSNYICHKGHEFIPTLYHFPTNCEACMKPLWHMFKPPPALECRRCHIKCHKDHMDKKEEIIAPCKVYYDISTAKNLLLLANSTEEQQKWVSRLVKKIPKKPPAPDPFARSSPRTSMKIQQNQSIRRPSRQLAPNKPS

| IC50 [µM] | SMILES |
| --- | --- |
| < 0.5 | NC(CC(=O)N1CCCC(CO)C1)c1ccc(C(=O)Nc2ccncc2)cc1 (stereo not drawn) [Compound 109, 4-[1-amino-3-(3-hydroxymethyl-piperidin-1-yl)-3-oxo-propyl]-N-pyridin-4-yl-benzamide] |
| < 0.5 | NC(CC(=O)N1CCCC2CCCCC21)c1ccc(C(=O)Nc2ccncc2)cc1 (stereo not drawn) [Compound 110, 4-[1-amino-3-(octahydro-quinolin-1-yl)-3-oxo-propyl]-N-pyridin-4-yl-benzamide] |
| < 0.5 | NC(CC(=O)N1CCC(O)(c2ccccc2)CC1)c1ccc(C(=O)Nc2ccncc2)cc1 (stereo not drawn) [Compound 111, 4-[1-amino-3-(4-hydroxy-4-phenyl-piperidin-1-yl)-3-oxo-propyl]-N-pyridin-4-yl-benzamide] |
| < 0.5 | NC(CC(=O)N1CCOCC1)c1ccc(C(=O)Nc2ccncc2)cc1 (stereo not drawn) [Compound 112, 4-(1-amino-3-morpholin-4-yl-3-oxo-propyl)-N-pyridin-4-yl-benzamide] |
| < 0.5 | CC1CN(C(=O)CC(N)c2ccc(C(=O)Nc3ccncc3)cc2)CC(C)O1 (stereo not drawn) [Compound 113, 4-[1-amino-3-(2,6-dimethyl-morpholin-4-yl)-3-oxo-propyl]-N-pyridin-4-yl-benzamide] |
| < 0.5 | CC(C)N1CCN(C(=O)CC(N)c2ccc(C(=O)Nc3ccncc3)cc2)CC1 (stereo not drawn) [Compound 114, 4-[1-amino-3-(4-isopropyl-piperazin-1-yl)-3-oxo-propyl]-N-pyridin-4-yl-benzamide] |
| < 0.5 | NC(CC(=O)N1CCN(CCO)CC1)c1ccc(C(=O)Nc2ccncc2)cc1 (stereo not drawn) [Compound 115, 4-{1-amino-3-[4-(2-hydroxy-ethyl)-piperazin-1-yl]-3-oxo-propyl}-N-pyridin-4-yl-benzamide] |
| < 0.5 | NC(CC(=O)N1CCN(c2ccccc2)CC1)c1ccc(C(=O)Nc2ccncc2)cc1 (stereo not drawn) [Compound 116, 4-[1-amino-3-oxo-3-(4-phenyl-piperazin-1-yl)-propyl]-N-pyridin-4-yl-benzamide] |
| < 0.5 | NC(CC(=O)N1CCC(c2ccccc2)CC1)c1ccc(C(=O)Nc2ccncc2)cc1 (stereo not drawn) [Compound 117, 4-[1-amino-3-(4-phenyl-piperidin-1-yl)-3-oxo-propyl]-N-pyridin-4-yl-benzamide] |
| < 0.5 | NC(CC(=O)N1CC=C(c2ccc(F)cc2)CC1)c1ccc(C(=O)Nc2ccncc2)cc1 (stereo not drawn) [Compound 118, 4-{1-amino-3[4-(4-fluoro-phenyl)-3,6-dihydro-2H-pyridin-1-yl]-3-oxo-propyl}-N-pyridin-4-yl-benzamide] |
| < 0.5 | NC(CC(=O)N1CCC(Cc2ccccc2)CC1)c1ccc(C(=O)Nc2ccncc2)cc1 (stereo not drawn) [Compound 119, 4-[1-amino-3-(4-benzyl-piperidin-1-yl)-3-oxo-propyl]-N-pyridin-4-yl-benzamide] |
| < 0.5 | NC(CC(=O)N1CCC(c2nc3ccccc3o2)CC1)c1ccc(C(=O)Nc2ccncc2)cc1 (stereo not drawn) [Compound 120, 4-[1-amino-3-(4-benzooxazol-2-yl-piperidin-1-yl)-3-oxo-propyl]-N-pyridin-4-yl-benzamide] |
| 0.5 to 5 | COc1ccc(CN2CCN(C(=O)CC(N)c3ccc(C(=O)Nc4ccncc4)cc3)CC2)cc1 (stereo not drawn) [Compound 121, 4-{1-Amino-3-[4-(4-methoxy-benzyl)-piperazin-1-yl]-3-oxo-propyl}-N-pyridin-4-yl-benzamide] |
| < 0.5 | NC(CC(=O)N1CCN(Cc2ccccc2F)CC1)c1ccc(C(=O)Nc2ccncc2)cc1 (stereo not drawn) [Compound 122, 4-{1-amino-3-[4-(2-fluoro-benzyl)-piperazin-1-yl]-3-oxo-propyl}-N-pyridin-4-yl-benzamide] |
| < 0.5 | NC(CC(=O)N1CCN(Cc2ccc(F)cc2)CC1)c1ccc(C(=O)Nc2ccncc2)cc1 (stereo not drawn) [Compound 123, 4-{1-amino-3-[4-(4-fluoro-benzyl)-piperazin-1-yl]-3-oxo-propyl}-N-pyridin-4-yl-benzamide] |
| < 0.5 | NC(CC(=O)N1CCN(C(=O)c2ccco2)CC1)c1ccc(C(=O)Nc2ccncc2)cc1 (stereo not drawn) [Compound 124, 4-{1-amino-3-[4-(furan-2-carbonyl)-piperazin-1-yl]-3-oxo-propyl}-N-pyridin-4-yl-benzamide] |
| < 0.5 | NC(CC(=O)N1CCC(c2c[nH]c3ccccc23)CC1)c1ccc(C(=O)Nc2ccncc2)cc1 (stereo not drawn) [Compound 125, 4-{1-amino-3-[4-(1H-indol-3-yl)-piperidin-1-yl]-3-oxo-propyl}-N-pyridin-4-yl-benzamide] |
| 0.5 to 5 | COC(=O)c1ccc2c(c1)CCN(C(=O)CC(N)c1ccc(C(=O)Nc3ccncc3)cc1)C2 (stereo not drawn) [Compound 126, 2-{3-amino-3-[4-(pyridin-4-ylcarbamoyl)-phenyl]-propionyl}-1,2,3,4-tetrahydro-isoquinoline-6-carboxylic acid methyl ester] |
| < 0.5 | COC(=O)c1ccc(C2CCCCN2C(=O)CC(N)c2ccc(C(=O)Nc3ccncc3)cc2)cc1 (stereo not drawn) [Compound 127, 4(1-{3-amino-3-[4-(pyridin-4-ylcarbamoyl)-phenyl]-propionyl}-piperidin-2-yl)-benzoic acid methyl ester] |
| < 0.5 | NC(CC(=O)N1CCc2c([nH]c3ccccc23)C1)c1ccc(C(=O)Nc2ccncc2)cc1 (stereo not drawn) [Compound 128, 4-[1-amino-3-oxo-(1,3,4,9-tetrahydro-β-carbolin-2-yl)-propyl]-N-pyridin-4-yl-benzamide] |
| 0.5 to 5 | NC(CC(=O)N1CCc2c([nH]c3ccccc23)C1c1cccc(Cl)c1)c1ccc(C(=O)Nc2ccncc2)cc1 (stereo not drawn) [Compound 129, 4-{1-amino-3-[1-(3-chloro-phenyl)-1,3,4,9-tetrahydro-β-carbolin-2-yl]-3-oxo-propyl}-N-pyridin-4-yl-benzamide] |
| 0.5 to 5 | COc1ccc(C2c3[nH]c4ccccc4c3CCN2C(=O)CC(N)c2ccc(C(=O)Nc3ccncc3)cc2)cc1Br (stereo not drawn) [Compound 130, 4-{1-amino-3-[1-(3-bromo-4-methoxy-phenyl)-1,3,4,9-tetrahydro-β-carbolin-2-yl]-3-oxo-propyl}-N-pyridin-4-yl-benzamide] |
| < 0.5 | NC(CC(=O)N1CCc2ccccc2C1)c1ccc(C(=O)Nc2ccncc2)cc1 (stereo not drawn) [Compound 131, 4-[1-amino-3-(3,4-dihydro-1H-isoquinolin-2-yl)-3-oxo-propyl]-N-pyridin-4-yl-benzamide] |

Same assay, conditions: Table 4, compounds 132 to 156

| IC50 [µM] | SMILES |
| --- | --- |
| 0.5 to 5 | COc1ccc(S(=O)(=O)N2CCCC2C(N)c2ccc(C(=O)Nc3ccncc3)cc2)cc1 (stereo not drawn) [Compound 132, 4-{Amino-[1-(4-methoxy-benzenesulfonyl)-pyrrolidin-2-yl]-methyl}-N-pyridin-4-yl-benzamide dihydrochloric acid salt] |
| 0.5 to 5 | NC(c1ccc(C(=O)Nc2ccncc2)cc1)C1CCCN1S(=O)(=O)c1ccccc1Cl (stereo not drawn) [Compound 133, 4-{Amino-[1-(2-chloro-benzenesulfonyl)-pyrrolidin-2-yl]-methyl}-N-pyridin-4-yl-benzamide dihydrochloric acid salt] |
| 0.5 to 5 | NC(c1ccc(C(=O)Nc2ccncc2)cc1)C1CCCN1S(=O)(=O)c1cccc(Cl)c1 (stereo not drawn) [Compound 134, 4-{Amino-[1-(3-chloro-benzenesulfonyl)-pyrrolidin-2-yl]-methyl}-N-pyridin-4-yl-benzamide dihydrochloric acid salt] |
| 0.5 to 5 | NC(c1ccc(C(=O)Nc2ccncc2)cc1)C1CCCN1S(=O)(=O)c1ccc(Cl)cc1 (stereo not drawn) [Compound 135, 4-{Amino-[1-(4-chloro-benzenesulfonyl)-pyrrolidin-2-yl]-methyl}-N-pyridin-4-yl-benzamide dihydrochloric acid salt] |
